Data from patent publication US8586555B2, “Immunomodulatory compositions, formulations, and methods for use thereof” (Dynavax Technologies Corporation, priority 2001, dated 2013).

Key:
Format in all cases: cell-based
[1] = system: human peripheral blood mononuclear cells (hPBMC); assay: human PBMC assay, Example 4 (oligos and PLGA premixed 15 minutes); conditions: for IFN-α Mean / IFN-γ Mean: mean of donors 28044, 28045
Procedure: (§1) Hexameric oligonucleotides were tested for immunomodulatory activity alone and complexed with lactic acid/glycolic acid copolymer microcarrier beads using a human peripheral blood mononuclear cells (hPBMC) assay. Peripheral blood was collected from healthy volunteers by venipuncture using heparinized syringes. Blood was layered onto a FICOLL® (Amersham Pharmacia Biotech) cushion and centrifuged. hPBMCs, located at the FICOLL® interface, were collected, then washed twice with cold phosphate buffered saline (PBS). The cells were resuspended and cultured in 48 well plates at 2×10^6 cells/mL at 37° C. in RPMI 1640 with 10% heat-inactivated human AB serum plus 50 units/mL penicillin, 50 μg/mL streptomycin, 300 μg/mL glutamine, 1 mM sodium pyruvate, and 1×MEM non-essential amino acids (NEAA).
(§2) Oligonucleotides were tested as single agents, or in combination with PLGA microspheres (unmodified or cationic). All oligonucleotides contained 100% phosphorothioate linkages and were tested at 20 μg/ml. The PLGA microcarriers were used at 250 μg/ml. When oligos were tested with PLGA microcarriers, the oligo and the microcarriers were added at the same time to the culture. The cells were cultured in the in the presence of test samples for 24 hours, then cell-free medium was collected from each well and assayed for IFN-γ and IFN-α concentration. Two different oligonucleotides were used as controls: a first oligonucleotide known to have immunostimulatory activity (a 22mer oligonucleotide containing an ISS (“ISS+,” 5′-[…]-3′(SEQ ID NO:2)) and a second oligonucleotide of similar sequence but lacking immunostimulatory activity (“ISS−,” 5′-[…]-3′ (SEQ ID NO:1)). SAC (PANSORBIN® CalBiochem, 1/5000 dilution) and a untreated culture were used as additional positive and negative controls, respectively. SAC contains Staph. aureus (Cowan I) cell material. All samples were assayed in duplicate.
(§3) IFN-γ and IFN-α were assayed using CYTOSCREEN™ ELISA kits from BioSource International, Inc., according to the manufacturer's instructions.
Additional hexameric and pentameric oligonucleotides were tested for immunomodulatory activity in the PBMC assay. Oligonucleotides 6-6 (5′-TCGAGA-3′), 6-8 (5′-GTCGAC-3′), 6-9 (5′-GTCGTT-3′), 6-2 (5′-TCGTTT-3′), 6-3 (5′-TTCGTT-3′), 6-4 (5′-TTTCGT-3′), 5-1 (5′-TCGTC-3′), and 5-2 (5′-TCGTT-3′) were tested alone or in combination with cationic PLGA as described in Example 3 except that the oligos and PLGA were premixed for 15 minutes room temperature before addition to the cultures. The test articles were assayed using PBMC isolated from donors 28044 and 28045.

[2] = system: human peripheral blood mononuclear cells (hPBMC); assay: human PBMC assay, Example 5 (96 well plates, premixed); conditions: for IFN-α Mean / IFN-γ Mean: mean of donors 28051-28054
Procedure: as §1, §2, §3
(§4) The immunomodulatory activity of the oligonucleotides used in Examples 3 and 4 was confirmed with the human PBMC assay using PBMCs from an additional four donors (donors 28051-28054). Oligonucleotides were tested alone or in combination with cationic PLGA as described in Example 3, except that 96 well plates were used instead of 48 well plates and the oligonucleotides were premixed with the cationic microspheres at room temperature for 15 minutes before they were added to the culture, rather than being added simultaneously to the culture.

[3] = system: human peripheral blood mononuclear cells (hPBMC); assay: human PBMC assay, Example 7 (oligo 20 μg/ml, cPLGA 100 μg/ml); conditions: for IFN-α Mean / IFN-γ Mean: mean of donors 28115-28118
Procedure: as §1, §2, §3, §4
Additional oligonucleotides, some incorporating modified bases, were tested for immunomodulatory activity in the human PBMC assay. Oligonucleotides were tested alone or in combination with cPLGA as described in Example 5. The oligonucleotides were premixed with the cationic PLGA microspheres for 15 minutes at room temperature at concentrations of 20 μg/ml and 100 μg/ml, respectively.

[4] = system: human peripheral blood mononuclear cells (hPBMC); assay: human PBMC assay, Example 6
Procedure: as §1, §2, §3, §4
Additional oligonucleotides were tested for immunomodulatory activity in the human PBMC assay. Oligonucleotides were tested alone or in combination with cPLGA as described in Example 5.
Additional oligonucleotides were tested using hPBMCs from volunteers 154-157 using the same assay. Results, which are shown in Table 7, confirm the activity of oligonucleotides fitting the formula 5′-X1TCGX2-3′, where the oligonucleotide is a 3-6mer, X1 is zero or one nucleotide and X2 is zero to three nucleotides.

[5] = delivered as IMO/MC complexes (cPLGA)

| Substance | IFN-α ([1]; donor 28044) | IFN-γ ([1]; donor 28044) | IFN-α ([1]; donor 28045) | IFN-γ ([1]; donor 28045) | IFN-α Mean [1] | IFN-γ Mean [1] | immunomodulatory activity ([2]; delivered alone) | immunomodulatory activity [2, 5] | IFN-α ([2]; donor 28051) | IFN-γ ([2]; donor 28051) | IFN-α ([2]; donor 28052) | IFN-γ ([2]; donor 28052) | IFN-α ([2]; donor 28053) | IFN-γ ([2]; donor 28053) | IFN-α ([2]; donor 28054) | IFN-γ ([2]; donor 28054) | IFN-α Mean [2] | IFN-γ Mean [2] | IFN-α ([3]; donor 28115) | IFN-γ ([3]; donor 28115) | other results |
| --- | --- | --- | --- | --- | --- | --- | --- | --- | --- | --- | --- | --- | --- | --- | --- | --- | --- | --- | --- | --- | --- |
| 5′-TCGTT-3′ [Oligonucleotide 5-2] | 0 pg/mL | 4 pg/mL | 0 pg/mL | 0 pg/mL | 0 pg/mL | 2 pg/mL | inactive | highly active | 1 pg/mL | 1 pg/mL | 5 pg/mL | 0 pg/mL | 0 pg/mL | 0 pg/mL | 2 pg/mL | 1 pg/mL | 2 pg/mL | 0 pg/mL | 0 pg/mL | 8 pg/mL | immunomodulatory activity ([3]; combined with cPLGA): active in two of four donors; IFN-α ([3]; donor 28116): 0 pg/mL; IFN-γ ([3]; donor 28116): 4 pg/mL; IFN-α ([3]; donor 28117): 0 pg/mL; IFN-γ ([3]; donor 28117): 8 pg/mL; IFN-α ([3]; donor 28118): 0 pg/mL; IFN-γ ([3]; donor 28118): 0 pg/mL; IFN-α Mean [3]: 0 pg/mL; IFN-γ Mean [3]: 5 pg/mL |
| 5′-TCGTTT-3′ [Oligonucleotide 6-2] | 0 pg/mL | 30 pg/mL | 0 pg/mL | 0 pg/mL | 0 pg/mL | 15 pg/mL | inactive | highly active | 0 pg/mL | 1 pg/mL | 2 pg/mL | 0 pg/mL | 10 pg/mL | 3 pg/mL | 0 pg/mL | 1 pg/mL | 3 pg/mL | 1 pg/mL | 0 pg/mL | 3 pg/mL | immunomodulatory activity ([4]; delivered as oligonucleotide/MC complex (cPLGA)): highly active; IFN-α ([4]; donor 28075): 36 pg/mL; IFN-γ ([4]; donor 28075): 8 pg/mL; IFN-α ([4]; donor 28076): 6 pg/mL; IFN-γ ([4]; donor 28076): 18 pg/mL; IFN-α ([4]; donor 28077): 66 pg/mL; IFN-γ ([4]; donor 28077): 5 pg/mL; IFN-α ([4]; donor 28078): 101 pg/mL; IFN-γ ([4]; donor 28078): 14 pg/mL; IFN-α Mean ([4]; mean of donors 28075-28078): 53 pg/mL; IFN-γ Mean ([4]; mean of donors 28075-28078): 11 pg/mL; IFN-α ([3]; donor 28116): 0 pg/mL; IFN-γ ([3]; donor 28116): 0 pg/mL; IFN-α ([3]; donor 28117): 0 pg/mL; IFN-γ ([3]; donor 28117): 5 pg/mL; IFN-α ([3]; donor 28118): 0 pg/mL; IFN-γ ([3]; donor 28118): 0 pg/mL; IFN-α Mean [3]: 0 pg/mL; IFN-γ Mean [3]: 2 pg/mL |
